Assay type in all cases: biochemical
For test [1], the target named is T1, PI3K γ (Homo sapiens, UniProt P48736).
T1 construct: purchased Upstate
The test can be described thus: PI 3-Kinase HTRF inhibition assay, PI3K γ. To be noted: in vitro. (In general: Time-resolved FRET reads energy transfer from a long-lived donor to a nearby acceptor.)

In test [2] the target is T2, mTOR C (Homo sapiens, UniProt P42345).
T2 construct: purchased Invitrogen
Nature of the test: mTOR kinase inhibition assay (mTORC IC50). Conditions: in vitro. How it is done:
The cross-activity or lack thereof of one or more compounds of the present invention against mTor can be measured according to any procedures known in the art or methods disclosed below. The compounds described herein can be tested against recombinant mTOR (Invitrogen) in an assay containing 50 mM HEPES, pH 7.5, 1 mM EGTA, 10 mM MgCl2, 2.5 mM, 0.01% Tween, 10 μM ATP (2.5 μCi of […]), and 3 μg/mL BSA. Rat recombinant PHAS-1/4EBP1 (Calbiochem; 2 mg/mL) is used as a substrate. Reactions are terminated by spotting onto nitrocellulose, which is washed with 1M NaCl/1% phosphoric acid (approximately 6 times, 5-10 minutes each). Sheets are dried and the transferred radioactivity quantitated by phosphorimaging.
Other kits or systems for assaying mTOR activity are commercially available. For instance, one can use Invitrogen's LanthaScreen™ Kinase assay to test the inhibitors of mTOR disclosed herein. This assay is a time resolved FRET platform that measures the phosphorylation of GFP labeled 4EBP1 by mTOR kinase. The kinase reaction is performed in a white 384 well microtitre plate. The total reaction volume is 20 ul per well and the reaction buffer composition is 50 mM HEPES pH7.5, 0.01% Polysorbate 20, 1 mM EGTA, 10 mM MnCl2, and 2 mM DTT. In the first step, each well receives 2 ul of test compound in 20% dimethylsulphoxide resulting in a 2% DMSO final concentration. Next, 8 ul of mTOR diluted in reaction buffer is added per well for a 60 ng/ml final concentration. To start the reaction, 10 ul of an ATP/GFP-4EBP1 mixture (diluted in reaction buffer) is added per well for a final concentration of 10 μM ATP and 0.5 μM GFP-4EBP1. The plate is sealed and incubated for 1 hour at room temperature. The reaction is stopped by adding 10 ul per well of a Tb-anti-pT46 4EBP1 antibody/EDTA mixture (diluted in TR-FRET buffer) for a final concentration of 1.3 nM antibody and 6.7 mM EDTA. The plate is sealed, incubated for 1 hour at room temperature, and then read on a plate reader set up for LanthaScreen™ TR-FRET. Data is analyzed and IC50s are generated using GraphPad Prism 5.

The target of test [3] is T3, PI3K α (Homo sapiens, UniProt P42336).
T3 construct: purchased Upstate
T3 sequence (P42336 whole entry): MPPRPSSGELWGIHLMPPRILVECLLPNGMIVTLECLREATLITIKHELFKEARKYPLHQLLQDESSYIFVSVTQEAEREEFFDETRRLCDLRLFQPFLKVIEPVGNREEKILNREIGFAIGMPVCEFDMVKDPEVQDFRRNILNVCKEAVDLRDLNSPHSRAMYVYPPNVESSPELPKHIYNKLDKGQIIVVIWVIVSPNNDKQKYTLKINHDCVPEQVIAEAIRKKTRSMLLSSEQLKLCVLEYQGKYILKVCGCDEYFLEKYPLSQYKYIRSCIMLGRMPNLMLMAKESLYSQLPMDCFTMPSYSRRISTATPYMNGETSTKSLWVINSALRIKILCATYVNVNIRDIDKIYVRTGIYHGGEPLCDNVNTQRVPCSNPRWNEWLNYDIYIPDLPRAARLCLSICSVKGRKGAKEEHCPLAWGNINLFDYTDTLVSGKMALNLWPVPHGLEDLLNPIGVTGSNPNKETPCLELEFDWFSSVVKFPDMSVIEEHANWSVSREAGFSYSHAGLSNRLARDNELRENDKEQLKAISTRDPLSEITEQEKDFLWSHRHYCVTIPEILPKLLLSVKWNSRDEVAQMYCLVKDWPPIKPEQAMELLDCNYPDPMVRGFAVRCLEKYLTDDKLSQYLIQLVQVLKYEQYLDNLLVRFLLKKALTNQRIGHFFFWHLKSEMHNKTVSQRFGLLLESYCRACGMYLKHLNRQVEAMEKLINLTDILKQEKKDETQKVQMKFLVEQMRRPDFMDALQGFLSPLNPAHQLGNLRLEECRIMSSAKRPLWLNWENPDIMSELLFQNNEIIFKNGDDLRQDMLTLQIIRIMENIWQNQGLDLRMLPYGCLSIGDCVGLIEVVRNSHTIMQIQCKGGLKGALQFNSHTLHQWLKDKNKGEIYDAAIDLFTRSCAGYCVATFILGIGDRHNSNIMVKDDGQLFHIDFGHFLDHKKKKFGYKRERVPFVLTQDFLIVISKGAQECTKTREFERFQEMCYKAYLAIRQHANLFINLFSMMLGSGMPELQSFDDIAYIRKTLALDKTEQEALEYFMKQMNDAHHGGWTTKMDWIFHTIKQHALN
T3 sequence (P27986 whole entry partner): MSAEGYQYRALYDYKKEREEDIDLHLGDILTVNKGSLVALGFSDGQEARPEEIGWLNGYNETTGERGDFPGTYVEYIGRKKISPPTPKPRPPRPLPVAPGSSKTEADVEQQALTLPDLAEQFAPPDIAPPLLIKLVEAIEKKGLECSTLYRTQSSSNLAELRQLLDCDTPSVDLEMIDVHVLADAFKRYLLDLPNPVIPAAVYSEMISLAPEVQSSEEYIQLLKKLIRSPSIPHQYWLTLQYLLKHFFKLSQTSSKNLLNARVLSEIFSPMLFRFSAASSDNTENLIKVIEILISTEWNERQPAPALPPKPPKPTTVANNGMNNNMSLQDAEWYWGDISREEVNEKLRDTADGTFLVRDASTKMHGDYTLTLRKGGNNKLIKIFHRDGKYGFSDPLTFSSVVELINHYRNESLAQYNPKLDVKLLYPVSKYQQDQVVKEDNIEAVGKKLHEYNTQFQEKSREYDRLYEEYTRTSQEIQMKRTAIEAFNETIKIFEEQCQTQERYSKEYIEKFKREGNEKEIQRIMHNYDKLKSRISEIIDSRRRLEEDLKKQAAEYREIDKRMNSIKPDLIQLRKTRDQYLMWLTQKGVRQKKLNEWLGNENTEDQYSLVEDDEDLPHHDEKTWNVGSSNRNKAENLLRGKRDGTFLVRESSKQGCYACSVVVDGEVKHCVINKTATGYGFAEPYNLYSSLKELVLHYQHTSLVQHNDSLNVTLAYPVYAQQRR
Nature of the test: PI 3-Kinase HTRF inhibition assay, PI3K α. To be noted: in vitro; read-out: PI3K α IC50. How it is done:
(§1) Commercial kits or systems for assaying PI3-K activities are available. The commercially available kits or systems can be used to screen for inhibitors and/or agonists of PI3-Ks including but not limited to PI 3-Kinase α, β, δ, and γ. An exemplary system is PI 3-Kinase (human) HTRF™ Assay from Upstate. […] Briefly, the assay is a time resolved FRET assay that indirectly measures PIP3 product formed by the activity of a PI3-K. The kinase reaction is performed in a microtitre plate (e.g., a 384 well microtitre plate). The total reaction volume is approximately 20 ul per well. In the first step, each well receives 2 ul of test compound in 20% dimethylsulphoxide resulting in a 2% DMSO final concentration. Next, approximately 14.5 ul of a kinase/PIP2 mixture (diluted in 1× reaction buffer) is added per well for a final concentration of 0.25-0.3 ug/ml kinase and 10 μM PIP2. The plate is scaled and incubated for 15 minutes at room temperature. To start the reaction, 3.5 ul of ATP (diluted in 1× reaction buffer) is added per well for a final concentration of 10 μM ATP. The plate is sealed and incubated for 1 hour at room temperature. The reaction is stopped by adding 5 ul of Stop Solution per well and then 5 ul of Detection Mix is added per well. The plate is sealed, incubated for 1 hour at room temperature, and then read on an appropriate plate reader. Data is analyzed and IC50s are generated using GraphPad Prism 5. For PI3K α, β, δ, and γ, the nM concentration of inhibitor to reach IC50 is provided. […] Similar assays, and others known in the art, can be used to measure the percent inhibition of other kinases, including but not limited to PI3K class II kinases, phosphoinositide 4 kinases (PI4K), and phosphoinositide 5 kinases (PI5K).

Test [4] has as its target T4, PI3K δ (Homo sapiens, UniProt O00329).
T4 construct: purchased Upstate
The test can be described thus: PI 3-Kinase HTRF inhibition assay, PI3K δ. Conditions: in vitro; read-out: PI3K δ IC50. How it is done: as §1

In test [5] the target is T5, PI3K β (Homo sapiens, UniProt P42338).
T5 construct: purchased Upstate
T5 sequence (P42338 whole entry): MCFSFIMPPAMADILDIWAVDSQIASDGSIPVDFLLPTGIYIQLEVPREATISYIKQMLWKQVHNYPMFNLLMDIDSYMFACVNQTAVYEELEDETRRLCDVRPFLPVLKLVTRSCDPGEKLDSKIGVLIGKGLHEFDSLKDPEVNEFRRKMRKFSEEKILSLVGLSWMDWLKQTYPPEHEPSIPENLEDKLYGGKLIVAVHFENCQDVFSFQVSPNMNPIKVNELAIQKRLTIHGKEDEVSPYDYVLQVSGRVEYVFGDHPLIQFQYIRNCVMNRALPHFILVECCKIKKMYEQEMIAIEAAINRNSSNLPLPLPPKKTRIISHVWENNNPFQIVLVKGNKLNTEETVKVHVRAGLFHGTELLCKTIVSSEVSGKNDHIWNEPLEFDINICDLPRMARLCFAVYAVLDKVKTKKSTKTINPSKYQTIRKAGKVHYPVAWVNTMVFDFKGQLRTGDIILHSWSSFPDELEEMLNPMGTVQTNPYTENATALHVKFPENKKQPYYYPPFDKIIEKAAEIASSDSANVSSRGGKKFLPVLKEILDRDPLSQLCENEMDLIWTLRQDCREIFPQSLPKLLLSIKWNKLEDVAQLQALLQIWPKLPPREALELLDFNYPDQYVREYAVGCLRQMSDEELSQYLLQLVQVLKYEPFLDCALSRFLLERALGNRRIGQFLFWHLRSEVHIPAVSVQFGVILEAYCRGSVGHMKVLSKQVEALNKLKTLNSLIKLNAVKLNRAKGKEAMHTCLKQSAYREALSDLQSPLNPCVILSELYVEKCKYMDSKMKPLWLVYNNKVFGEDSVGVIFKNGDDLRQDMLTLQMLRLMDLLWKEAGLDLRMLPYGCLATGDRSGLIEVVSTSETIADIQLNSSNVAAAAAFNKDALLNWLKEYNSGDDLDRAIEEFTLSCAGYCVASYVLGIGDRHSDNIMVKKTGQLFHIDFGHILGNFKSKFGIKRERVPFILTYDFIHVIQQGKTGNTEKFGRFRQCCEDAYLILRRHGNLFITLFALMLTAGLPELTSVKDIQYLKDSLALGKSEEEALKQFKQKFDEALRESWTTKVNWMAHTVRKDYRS
T5 sequence (P27986 whole entry partner): as the sequence (P27986 whole entry partner) above
The test can be described thus: PI 3-Kinase HTRF inhibition assay, PI3K β. Conditions: in vitro. How it is done:
as §1

One may read the IC50 as the concentration at which inhibition is half-maximal.

T4 sequence (O00329 whole entry): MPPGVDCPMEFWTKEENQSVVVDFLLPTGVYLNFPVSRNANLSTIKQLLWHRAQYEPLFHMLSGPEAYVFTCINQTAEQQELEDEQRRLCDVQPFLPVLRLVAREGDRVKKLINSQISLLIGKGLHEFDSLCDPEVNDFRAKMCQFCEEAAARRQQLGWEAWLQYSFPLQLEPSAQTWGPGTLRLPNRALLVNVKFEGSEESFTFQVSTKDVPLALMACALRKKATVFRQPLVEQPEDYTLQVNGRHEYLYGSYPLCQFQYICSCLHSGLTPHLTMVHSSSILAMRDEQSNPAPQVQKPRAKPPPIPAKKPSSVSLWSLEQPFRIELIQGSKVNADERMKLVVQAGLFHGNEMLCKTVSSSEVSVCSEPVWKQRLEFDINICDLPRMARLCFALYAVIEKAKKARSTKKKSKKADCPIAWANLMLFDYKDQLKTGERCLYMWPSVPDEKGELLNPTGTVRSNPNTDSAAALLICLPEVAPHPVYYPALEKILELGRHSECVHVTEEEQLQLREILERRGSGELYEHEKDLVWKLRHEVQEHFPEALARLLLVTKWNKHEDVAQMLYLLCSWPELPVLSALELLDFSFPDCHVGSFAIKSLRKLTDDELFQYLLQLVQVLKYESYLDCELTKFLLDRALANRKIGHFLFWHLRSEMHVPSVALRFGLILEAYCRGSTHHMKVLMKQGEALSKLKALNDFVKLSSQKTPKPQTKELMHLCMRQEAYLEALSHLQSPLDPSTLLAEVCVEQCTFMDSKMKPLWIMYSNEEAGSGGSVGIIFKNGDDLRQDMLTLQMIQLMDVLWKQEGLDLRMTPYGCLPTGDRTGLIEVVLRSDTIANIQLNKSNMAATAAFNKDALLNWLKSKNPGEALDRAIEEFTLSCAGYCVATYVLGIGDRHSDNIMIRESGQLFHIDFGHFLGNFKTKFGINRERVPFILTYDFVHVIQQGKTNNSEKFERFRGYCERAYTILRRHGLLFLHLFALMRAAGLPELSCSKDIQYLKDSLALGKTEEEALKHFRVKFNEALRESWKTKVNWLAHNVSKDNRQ
T4 sequence (P27986 whole entry partner): as the sequence (P27986 whole entry partner) above
T1 sequence (P48736 whole entry): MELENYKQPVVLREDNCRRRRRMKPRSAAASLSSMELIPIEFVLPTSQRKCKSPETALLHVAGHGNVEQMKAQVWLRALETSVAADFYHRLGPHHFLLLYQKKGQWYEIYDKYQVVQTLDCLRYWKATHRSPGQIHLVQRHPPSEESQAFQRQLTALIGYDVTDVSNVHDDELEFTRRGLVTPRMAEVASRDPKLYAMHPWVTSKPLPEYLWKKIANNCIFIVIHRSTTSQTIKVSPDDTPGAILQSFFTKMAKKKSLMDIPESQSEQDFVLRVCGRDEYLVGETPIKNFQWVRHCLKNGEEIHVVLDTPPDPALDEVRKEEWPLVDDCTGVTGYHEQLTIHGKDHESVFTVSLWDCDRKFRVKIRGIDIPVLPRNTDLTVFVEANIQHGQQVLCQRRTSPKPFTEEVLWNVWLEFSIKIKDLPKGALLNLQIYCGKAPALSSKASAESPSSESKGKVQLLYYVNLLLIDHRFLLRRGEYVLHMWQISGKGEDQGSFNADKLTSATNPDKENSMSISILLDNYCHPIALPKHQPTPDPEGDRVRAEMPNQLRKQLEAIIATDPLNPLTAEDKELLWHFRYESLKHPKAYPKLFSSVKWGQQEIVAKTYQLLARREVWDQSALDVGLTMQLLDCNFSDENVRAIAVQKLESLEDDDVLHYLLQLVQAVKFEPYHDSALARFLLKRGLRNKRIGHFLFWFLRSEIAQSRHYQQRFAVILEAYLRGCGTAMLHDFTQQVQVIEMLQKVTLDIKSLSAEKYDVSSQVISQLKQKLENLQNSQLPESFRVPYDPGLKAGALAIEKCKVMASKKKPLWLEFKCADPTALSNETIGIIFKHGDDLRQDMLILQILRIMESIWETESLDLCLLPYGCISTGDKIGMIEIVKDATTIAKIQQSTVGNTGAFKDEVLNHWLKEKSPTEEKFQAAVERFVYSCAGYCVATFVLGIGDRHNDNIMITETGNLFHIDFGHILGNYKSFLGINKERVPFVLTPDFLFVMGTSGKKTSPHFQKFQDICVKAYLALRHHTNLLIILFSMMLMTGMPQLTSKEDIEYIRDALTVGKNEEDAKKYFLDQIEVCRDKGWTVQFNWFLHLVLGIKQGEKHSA

For `Nc1nc2cc(-c3ccc4ncc(N5C6CCC5COC6)nc4n3)ccc2o1` [Compound 19], the IC50 in test [1] was less than 0.1 µM; in test [2], more than 10 µM; in test [3], less than 0.1 µM; in test [4], more than 10 µM; in test [5] it was more than 10 µM.

`CN1CC2CN(c3cnc4ccc(-c5ccc6oc(N)nc6c5)nc4n3)CC2C1` (stereo not drawn) [Compound 78]: the IC50 in test [1] was less than 10 µM; in test [2], more than 10 µM; in test [3], less than 0.1 µM; in test [4] it was less than 1 µM; in test [5], less than 1 µM.

Turning to `CCN1CCN(C2CN(c3cnc4ccc(-c5ccc6nc(N)[nH]c6c5)nc4c3)C2)CC1` [Compound 87], the IC50 in test [1] was more than 10 µM; in test [3], less than 0.1 µM; in test [4] it was more than 10 µM; in test [5], more than 10 µM.

With `CC(C)(N)C(=O)N1CCN(c2ccc3ncc(-c4ccc5oc(N)nc5c4)cc3n2)CC1` [Compound 82], the IC50 is less than 10 µM in test [1], less than 10 µM in test [3], more than 10 µM in test [4] and more than 10 µM in test [5].

As to `C[C@@H]1CN(c2cnc3ccc(-c4ccc5oc(N)nc5c4)nc3n2)CCN1` [Compound 27], the IC50 was less than 1 µM in test [1], less than 0.1 µM in test [3], less than 10 µM in test [4] and less than 0.1 µM in test [5].

Consider `Nc1nc2cc(-c3ccc4ncc(N5CCC(O)CC5)cc4n3)ccc2o1` [Compound 62], for which the IC50 in test [1] was less than 1 µM; in test [3], less than 0.1 µM; in test [4], less than 10 µM; in test [5], less than 10 µM.

Consider `C[C@H]1CN(C2CN(c3cnc4ccc(-c5ccc6nc(N)[nH]c6c5)nc4c3)C2)CCN1C` [Compound 89], for which the IC50 in test [1] was more than 10 µM; in test [3] it was less than 0.1 µM; in test [4], more than 10 µM; in test [5], more than 10 µM.

In the case of `Nc1nc2cc(-c3ccc4ncc(N5CC(N6CCOCC6)C5)nc4n3)ccc2o1` [Compound 5], the IC50 in test [1] is less than 10 µM; in test [3], less than 0.1 µM; in test [4], less than 10 µM; in test [5], more than 10 µM.

Regarding `CC(C)N1CCN(C2CN(c3cnc4ccc(-c5ccc6oc(N)nc6c5)nc4n3)C2)CC1` [Compound 77], the IC50 in test [1] is more than 10 µM; in test [3], less than 10 µM; in test [4], more than 10 µM; in test [5], more than 10 µM.

Consider `Nc1nc2cc(-c3ccc4ncc(N5CC(N6CCN(CCO)CC6)C5)nc4n3)ccc2o1` [Compound 46], for which the IC50 in test [1] was less than 10 µM; in test [3], less than 0.1 µM; in test [4], less than 10 µM; in test [5], less than 10 µM.

In the case of `CN1CC2CN(c3cnc4ccc(-c5ccc6oc(N)nc6c5)nc4c3)CC2C1` (stereo not drawn) [Compound 79], the IC50 in test [1] is less than 1 µM; in test [2], more than 10 µM; in test [3], less than 0.1 µM; in test [4], less than 1 µM; in test [5], less than 1 µM.

Take `CN1CCN(C2CN(c3cnc4ccc(-c5ccc6oc(N)nc6c5)nc4c3)C2)CC1` [Compound 74]: the IC50 is less than 1 µM in test [1], less than 0.1 µM in test [3], less than 1 µM in test [4] and less than 1 µM in test [5].

`Nc1nc2cc(-c3ccc4ncc(N5CC(N6CCN(CC7CC7)CC6)C5)cc4n3)ccc2o1` [Compound 60]: the IC50 was less than 10 µM in test [1], less than 0.1 µM in test [3], less than 1 µM in test [4] and less than 10 µM in test [5].

For the compound `Nc1nc2cc(-c3ccc4ncc(N5CC(N6CC7CCC(C6)O7)C5)nc4n3)ccc2o1` [Compound 20], the IC50 in test [1] was less than 10 µM; in test [3], less than 1 µM; in test [4] it was more than 10 µM; in test [5], more than 10 µM.

Turning to `CC(C)N1CCN(c2cnc3ccc(-c4ccc5oc(N)nc5c4)nc3c2)CC1` [Compound 44], the IC50 is less than 1 µM in test [1], less than 0.1 µM in test [3], less than 1 µM in test [4] and less than 1 µM in test [5].

Regarding `C[C@@H]1COCCN1c1cnc2ccc(-c3ccc4oc(N)nc4c3)nc2n1` [Compound 14], the IC50 in test [1] is less than 0.1 µM; in test [3], less than 0.1 µM; in test [4] it was less than 10 µM; in test [5] it was less than 10 µM.

Turning to `C[C@@H]1COCCN1C1CN(c2cnc3ccc(-c4ccc5oc(N)nc5c4)nc3n2)C1` [Compound 49], the IC50 in test [1] was less than 10 µM; in test [3], less than 10 µM; in test [4], more than 10 µM; in test [5] it was more than 10 µM.

Turning to `CN1CCN(C2CN(c3cnc4ccc(-c5ccc6oc(N)nc6c5)nc4c3)C2)CC1=O` [Compound 64], the IC50 was less than 0.1 µM in test [1], less than 0.1 µM in test [3], less than 1 µM in test [4] and less than 10 µM in test [5].

In the case of `Nc1nc2cc(-c3ccc4ncc(-c5cccnc5)cc4n3)ccc2o1` [Compound 16], the half-maximal inhibitory concentration (IC50) was less than 0.1 µM in test [1], less than 0.1 µM in test [3], less than 10 µM in test [4] and less than 10 µM in test [5].

Turning to `Cc1nccn1C1CN(c2cnc3ccc(-c4ccc5oc(N)nc5c4)nc3c2)C1` [Compound 63], the half-inhibitory concentration (IC50) in test [1] was less than 0.1 µM; in test [3], less than 0.1 µM; in test [4], less than 1 µM; in test [5] it was less than 10 µM.

Turning to `Nc1nc2cc(-c3ccc4ncc(N5CCC(O)CC5)nc4n3)ccc2o1` [Compound 45], the IC50 was less than 0.1 µM in test [1], less than 0.1 µM in test [3], more than 10 µM in test [4] and less than 10 µM in test [5].
